The structures appear in SMILES notation. Read-outs that look alike come from different tables or passages of the source. Bounds are passed on as bounds.

The values below come from patent publication US12226405B2, “Compounds and compositions for inhibiting the activity of HIF2-alpha and their methods of use” (Novartis AG, priority 2020, dated 2025).

The test system of series [1] is HIF2α-regulated expression of the endogenous target gene hEGLN3 in 786-O cells. In words: Cellular iScript assay for HIF2α (quantitative RT-PCR of hEGLN3). In kind it is cell-based, human. The note with it: Homo sapiens, 786-0, 48 hours incubation. In short, it runs like this: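 786-O cells were exposed to eleven 2-fold compound dilutions for 48 h at 37° C. Lysates underwent one-step TaqMan qRT-PCR for hEGLN3 with beta-actin as reference; 2^(−ΔΔCt) versus DMSO, as % of control, was fit with a four-parameter model to give IC50.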

In series [2] the test system is HIF2α-dependent transcription in 786-O-HRE-Luc cells. Briefly: In vitro cellular hypoxia response element (HRE) reporter gene assay (RGA) for HIF2α. The series is classed as cell-based, human. Conditions: Homo sapiens, 24 hours incubation. In short, it runs like this:
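Renal carcinoma cells carrying a 4×HRE-driven PEST-destabilised firefly luciferase were treated a day after seeding with eleven 2-fold compound dilutions (0.1% DMSO) for 24 h at 37° C. BrightGlo luminescence, background-subtracted and expressed as % of DMSO control, was fitted four-parametrically for IC50.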
For orientation: Reporter assays use an easily measured gene product as a stand-in for the process of interest.

The target in series [3] is T1, HIF2α PAS-B domain (236-350, biotinylated on the N-terminus) (Homo sapiens (Human), UniProt Q99814). Briefly: biochemical.
Experimental: (§1) The assay buffer contained 50 mM Tris-HCl pH7 (Sigma), 20 mM NaCl (Fluka), 0.02% BSA (Sigma), 0.005% Triton X-100 (Pierce) and 1 mM DTT (Fluka). After a 30 min incubation period, 5 μL Streptavidin PVT SPA Beads (Perkin Elmer) at 1.2 mg/mL, diluted in the buffer, were added.
The target of series [4] is T1, HIF2α PAS-B domain (236-350, biotinylated on the N-terminus). Briefly: In vitro SPA with the PAS-B domain of HIF2α (competition binding with radio-ligand). Conditions: read-out: affinity of the non-labeled ligand, IC50.
Experimental: as §1
For series [5] the following is noted: 25° C.; for hygroscopicity assignment (DVS): 0 to 95% RH. On the procedure: Dynamic vapor sorption was performed using a SMS Advantage system. Approximately 10 mg of sample was subjected to varying humidities between 0% RH and 95% RH at 25° C. Evaluation was performed using the system software.
Series [6] deals with T1, HIF2α PAS-B domain (236-350, biotinylated on the N-terminus).
Experimental: as §1

T1 sequence (Q99814 236-350): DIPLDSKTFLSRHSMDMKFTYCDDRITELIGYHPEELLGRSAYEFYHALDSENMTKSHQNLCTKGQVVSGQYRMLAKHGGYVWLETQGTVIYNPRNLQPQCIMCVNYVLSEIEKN

Broadly, the IC50 is the point on the concentration scale where inhibition reaches its midpoint. With `Fc1c(C(F)(F)F)ccc2c1COCC21CN2C=C(C(F)(F)F)C=C(OC(F)F)C2=N1` (racemic) [Example 108, rac-8-(difluoromethoxy)-8′-fluoro-6,7′-bis(trifluoromethyl)-3H-spiro[imidazo[1,2-a]pyridine-2,4′-isochroman]], the IC50 worked out at 156 nM in series [1], 692 nM in series [2] and 29 nM in series [3].

On to `O=[N+]([O-])c1c(Nc2cc(F)cc(Cl)c2)ccc2nonc12` [N-(3-chloro-5-fluorophenyl-4-t)-4-nitrobenzo[c][1,2,5]oxadiazol-7-t-5-amine, reference compound], for which the IC50 in series [4] is 82 ± 18 nM.

On to `FC(F)OC1=CC(C(F)(F)F)=CN2C[C@@]3(CCC(F)(F)c4c3ccnc4Cl)N=C12`, for which, in series [5], the “hygroscopicity assignment (DVS)” value was “non-hygroscopic”; the “mass difference between 0 and 95% RH (DVS)” value is “less than 0.05 weight %”.

In the case of `FC(F)OC1=CC(C(F)(F)F)=CN2C[C@]3(CCOc4cc(C(F)(F)F)ccc43)N=C12` [(R)-8′-(difluoromethoxy)-6′,7-bis(trifluoromethyl)-3′H-spiro[chroman-4,2′-imidazo[1,2-a]pyridine]], in series [3], the IC50 is more than 10000 nM.

For `Fc1cccc2c1OC[C@H](F)[C@@]21CN2C=C(C(F)(F)F)C=C(OC(F)F)C2=N1` (racemic) [Example 101, rac-8′-(difluoromethoxy)-3,8-difluoro-6′-(trifluoromethyl)-3′H-spiro[chromane-4,2′-imidazo[1,2-a]pyridine]], the IC50 came out at 149 nM in series [1] and 15 nM in series [3].

Turning to `FC1=CC(C(F)(F)F)=CN2CC3(CCCc4c3ccc(F)c4F)N=C12` (racemic) [Example 78, rac-5′,6′,8-trifluoro-6-(trifluoromethyl)-3′,4′-dihydro-2′H,3H-spiro[imidazo[1,2-a]pyridine-2,1′-naphthalene]], the IC50 stood at 161 nM in series [1], 4230 nM in series [2] and 8 nM in series [3].

For the molecule `FC(F)OC1=CC(C(F)(F)F)=CN2C[C@@]3(CCC(F)(F)c4c3ccnc4Cl)N=C12.O=C(O)/C=C/C(=O)O`, in series [5], the “hygroscopicity assignment (DVS)” value was “non-hygroscopic”; the “mass difference between 0 and 95% RH (DVS)” value is “less than 0.1 weight %”.

With `O=C1c2c(F)cccc2[C@@]2(C[C@H]1F)CN1C=C(C(F)(F)F)C=C(OC(F)F)C1=N2` [Example 20, (1′S,3′R)-8-(difluoromethoxy)-3′,5′-difluoro-6-(trifluoromethyl)-2′H,3H-spiro[imidazo[1,2-a]pyridine-2,1′-naphthalen]-4′(3′H)-one], the IC50 was 155 nM in series [1], 892 nM in series [2] and 15 nM in series [3].

As to `N#CC1=CN2C[C@@]3(CSCc4c(F)cccc43)N=C2C(OC(F)F)=C1` [Example 68, (S)-8-(difluoromethoxy)-8′-fluoro-3H-spiro[imidazo[1,2-a]pyridine-2,4′-isothiochroman]-6-carbonitrile], the figures for the IC50 in series [1], in series [2] and in series [3] were 111 nM, 670 nM and 11 nM, respectively.

On to `O[C@@H]1c2c(ccc(Br)c2F)[C@]2(CN3C=C(C(F)(F)F)C=C(OC(F)F)C3=N2)CC1(F)F` [Example 19, (1′S,4′R)-6′-bromo-8-(difluoromethoxy)-3′,3′,5′-trifluoro-6-(trifluoromethyl)-3′,4′-dihydro-2′H,3H-spiro[imidazo[1,2-a]pyridine-2,1′-naphthalen]-4′-ol], for which the results for the IC50 in series [1], in series [2] and in series [3] were 144 nM, 446 nM and 36 nM, respectively.

On to `FC(F)OC1=CC(C(F)(F)F)=CN2CC3(CCCc4cnccc43)N=C12` (racemic) [Example 93, rac-8-(difluoromethoxy)-6-(trifluoromethyl)-7′,8′-dihydro-3H,6′H-spiro[imidazo[1,2-a]pyridine-2,5′-isoquinoline]], for which the IC50 in series [1] worked out at 178 nM; in series [3], 12 nM.

As for `O[C@H]1c2c(ccc(Br)c2F)[C@]2(CN3C=C(C(F)(F)F)C=C(OC(F)F)C3=N2)CC1(F)F` [Example 18, (1′S,4'S)-6′-bromo-8-(difluoromethoxy)-3′,3′,5′-trifluoro-6-(trifluoromethyl)-3′,4′-dihydro-2′H,3H-spiro[imidazo[1,2-a]pyridine-2,1′-naphthalen]-4′-ol], the IC50 in series [1] was found to be 37 nM; in series [2] it was 92 nM; in series [3] it was 6 nM.

Turning to `FC(F)OC1=CC(C(F)(F)F)=CN2CC3(CCCOc4c(Cl)cccc43)N=C12` (racemic) [Example 118, rac-9-chloro-8′-(difluoromethoxy)-6′-(trifluoromethyl)-3,4-dihydro-2H,3′H-spiro[benzo[b]oxepine-5,2′-imidazo[1,2-a]pyridine]], the IC50 is 161 nM in series [1], 1030 nM in series [2] and 16 nM in series [3].

For the molecule `Fc1c(Br)ccc2c1CC[C@@]21CN2C=C(C(F)(F)F)C=C(OC(F)F)C2=N1` [Example 1, (S)-5′-bromo-8-(difluoromethoxy)-4′-fluoro-6-(trifluoromethyl)-2′,3′-dihydro-3H-spiro[imidazo[1,2-a]pyridine-2,1′-indene]], the IC50 is 65 nM in series [1], 232 nM in series [2] and not above 3 nM in series [3].

In the case of `N#Cc1ccc2c(c1F)C(F)(F)CC[C@@]21CN2C=C(C(F)(F)F)C=C(OC(F)F)C2=N1` [Example 15, (S)-8-(difluoromethoxy)-4′,4′,5′-trifluoro-6-(trifluoromethyl)-3′,4′-dihydro-2′H,3H-spiro[imidazo[1,2-a]pyridine-2,1′-naphthalene]-6′-carbonitrile], the IC50 in series [1] came to 128 nM; in series [2], 392 nM; in series [6], 16 nM.

`FC(F)OC1=CC(C(F)(F)F)=CN2CC3(CCCc4c(Br)cccc43)N=C12` (racemic) [Example 81, rac-5′-bromo-8-(difluoromethoxy)-6-(trifluoromethyl)-3′,4′-dihydro-2′H,3H-spiro[imidazo[1,2-a]pyridine-2,1′-naphthalene]]: the concentration for half-maximal inhibition (IC50) in series [1] was 57 nM; in series [2] it was 143 nM; in series [3], not above 10 nM.

As for `N#CC1=CN2C[C@@]3(CCC(F)(F)c4c3ccc(Br)c4F)N=C2C(OC(F)F)=C1` [Example 92, (S)-6′-bromo-8-(difluoromethoxy)-4′,4′,5′-trifluoro-3′,4′-dihydro-2′H,3H-spiro[imidazo[1,2-a]pyridine-2,1′-naphthalene]-6-carbonitrile], the values for the IC50 in series [1], in series [2] and in series [6] were 153 nM, 626 nM and 29 nM, respectively.

Regarding `[2H]C1C([2H])([2H])Sc2c(F)cccc2[C@]12CN1C=C(C#N)C=C(OC(F)F)C1=N2` (stereo partly drawn) [Example 109, (2S)-8-(difluoromethoxy)-8′-fluoro-3H-spiro[imidazo[1,2-a]pyridine-2,4′-thiochromane]-6-carbonitrile-2′,2′,3′-d3], the IC50 in series [1] was 42 nM; in series [2], 90 nM; in series [6], 4 nM.

Regarding `Fc1c(C(F)(F)F)ccc2c1OCC[C@@]21CN2C=C(C(F)(F)F)C=C(OC(F)F)C2=N1` [Example 40, (S)-8′-(difluoromethoxy)-8-fluoro-6′,7-bis(trifluromethyl)-3′H-spiro[chroman-4,2′-imidazo[1,2-a]pyridine]], the IC50 in series [1] is 50 nM; in series [2], 190 nM; in series [6], 6 nM.

In the case of `Fc1c(Br)ccc2c1OC[C@@H](F)[C@@]21CN2C=C(C(F)(F)F)C=C(OC(F)F)C2=N1` [Example 58, (2′S,3S)-7-bromo-8′-(difluoromethoxy)-3,8-difluoro-6′-(trifluoromethyl)-3′H-spiro[chroman-4,2′-imidazo[1,2-a]pyridine]], the IC50 in series [1] is 173 nM; in series [2], 183 nM; in series [6], 8 nM.

As to `[2H]C([2H])([2H])c1nccc2c1C(F)(F)CC[C@@]21CN2C=C(C(F)(F)F)C=C(OC(F)F)C2=N1` [Example 33, (S)-8-(difluoromethoxy)-8′,8′-difluoro-1′-(methyl-d3)-6-(trifluoromethyl)-7′,8′-dihydro-3H, 6′H-spiro[imidazo[1,2-a]pyridine-2,5′-isoquinoline]], the IC50 came out at 78 nM in series [1], 547 nM in series [2] and 17 nM in series [6].

As to `Fc1c(Br)ccc2c1OC[C@H](F)[C@@]21CN2C=C(C(F)(F)F)C=C(OC(F)F)C2=N1` [Example 57, (2′S,3R)-7-bromo-8′-(difluoromethoxy)-3,8-difluoro-6′-(trifluoromethyl)-3′H-spiro[chroman-4,2′-imidazo[1,2-a]pyridine]], the IC50 worked out at 62 nM in series [1], 196 nM in series [2] and 12 nM in series [6].
